Laboratory results: patent publication US7338778B2, “Luminescent method for determining cell oxygen consumption” (Becton, Dickinson and Company, priority 1991, dated 2008)
In brackets after ≈: the same amount, converted by molar mass.

Assays:
Type in all cases: cell-based
E. coli (ATCC #25922) [1] = test: Effect of antibiotics on E. coli, Ru(DPP)3Cl2 indicator tray (Example 8); conditions: for Relative Fluorescence at 4 hrs.: 1×10^7 CFU/ml, 37° C.
Method: (§1) A 0.5 McFarland suspension of E. coli (ATCC #25922) in Broth A (see Example 1) was prepared using an A-Just nephelometer. […] The trays were incubated at 37° C. for 4 hours and their fluorescence measured in a Fluoroskan II fluorometer.
The fluorescent compound tris 4,7-diphenyl-1,10-phenanthroline ruthenium (II) chloride (Ru(DPP)3Cl2) was synthesized using the procedure of Watts and Crosby (J. Am.Chem. Soc. 93, 3184(1971)). A total of 3.6 mg of the compound was dissolved in 2.0 ml dimethyl sulfoxide (D-5879, Sigma Chemical, St. Louis, Mo.) and the resultant solution was then added slowly, with stirring, to 1300 ml silicone rubber forming solution (Water Based Emulsion #3-5024, Dow Corning, Midland, Mich.). A 35 microliter aliquot of the mixture was subsequently dispensed into each well of a 96 well, flat bottom, white microtiter tray (#011-010-7901, Dynatech, Chantilly, Va.), and the system was subsequently cured overnight in a low humidity (less than 25% RH), 60° C. incubator. After curing, the trays were washed by either soaking or by filling and emptying each well several times with each of the following reagents; a) absolute ethanol, b) 0.1 M phosphate buffer pH 7.2, c) hot distilled water (about 45° C.) and d) ambient temperature distilled water.

E. coli (ATCC #25922) [2] = test: Effect of antibiotics on oxygen consumption of E. coli, Ru(BiPy)3Cl2 indicator tray (Example 9); conditions: for Relative Fluorescence at 4 hrs.: 1×10^7 CFU/ml, 37° C.
Method: A 96 well Microtiter tray was produced essentially as in Example 1, except that tris-(2,2′ bipyridyl)-ruthenium (II) chloride hexahydrate (Aldrich Chemical Company, Milwaukee, Wis.) [Ru(BiPy)3Cl2] was substituted for Ru(DPP)3Cl2 in the silicone mixture. A second tray containing 9,10-diphenyl anthracene (DPA) was also prepared. All wells were charged with 150 ul of 1×10^7 CFU/ml E. coli (ATCC #25922) in broth. Table 3 lists the results at 0, 1, 2, 3, and 4 hours after addition of organisms.
as §1

E. coli (ATCC #11775) = test: Effect of open and closed systems on oxygen measurements with cefuroxime (Example 11); conditions: 4 and 8 ug/ml, 5 hours, 37° C.
Method: A 96 well indicator microtiter tray was produced substantially as in Example 1. Duplicate wells in the tray were supplemented with the antibiotic cefuroxime in the concentration range of 0.25 to 32 ug/ml. One hundred and fifty microliters of a suspension of E. coli (ATCC #11775) was added to the wells to yield about 3×10^7 CFU/ml. One of each duplicate well was overlaid with mineral oil to inhibit diffusion of oxygen into the wells, the other duplicate was left open to the air. […] This difference is due, presumably to the time lag needed for the antibiotic to affect the organism; it is believed that during this time the oxygen is brought to an artificially low level by the ongoing metabolic activity of the organisms.

E. coli (ATCC #25922) [3] = test: Visual reading of indicator tray fluorescence without a fluorometer (Example 13); conditions: E. coli #25922, 1×10^7 CFU/ml, 4 hours at 37° C., UV transilluminator
Method: (§2) The trays were incubated for 4 hours at 37° C. and subsequently placed on the stage of an ultraviolet transilluminator (#TX-365A, Spectronics Corp., Westbury, N.Y.) which served as an excitation source.

[4] = test system: Ps. aeruginosa (BDMS Culture collection #N111); test: as above; conditions: 1×10^7 CFU/ml, 4 hours at 37° C., UV transilluminator
Method: as §2

[5] = test system: Ps. aeruginosa (BDMS Culture collection #N111); test: Overnight microdilution antimicrobial susceptibility test (reference MIC); conditions: Pseudomonas aeruginosa
E. coli (ATCC #25922) [6] = test: as above; conditions: Escherichia coli, ATCC25922; E. coli #25922, overnight microdilution
E. coli (ATCC #25922) [7] = test: Effect of antibiotics on oxygen consumption of E. coli, DPA indicator tray (Example 10); conditions: for Relative Fluorescence at 4 hrs.: 1×10^7 CFU/ml, 37° C.
[8] = all concentrations (0.5 to 8 ug/ml), 4 hours

- MIC Visual (lowest concentration of antibiotic to significantly lower the fluorescent emissions) (E. coli (ATCC #25922) [3]): 16 µg/mL
- MIC Visual (lowest concentration of antibiotic to significantly lower the fluorescent emissions) [4]: >64 µg/mL
- MIC [5]: > 64 µg/mL
- MIC (E. coli (ATCC #25922) [6]): 8 µg/mL (≈ 18.9 µM)
SMILES: CO/N=C(\C(=O)N[C@@H]1C(=O)N2C(C(=O)O)=C(COC(N)=O)CS[C@H]12)c1ccco1 [Cefuroxime, cefuroxime]
- susceptibility of E. coli by fluorescence counts (E. coli (ATCC #25922) [1]; [8]): resistant
- Relative Fluorescence at 4 hrs. (E. coli (ATCC #25922) [1]; antibiotic 0.5 ug/mL): 7902
- Relative Fluorescence at 4 hrs. (E. coli (ATCC #25922) [1]; antibiotic 1 ug/mL): 7983
- Relative Fluorescence at 4 hrs. (E. coli (ATCC #25922) [1]; antibiotic 2 ug/mL): 7161
- Relative Fluorescence at 4 hrs. (E. coli (ATCC #25922) [1]; antibiotic 4 ug/mL): 7598
- Relative Fluorescence at 4 hrs. (E. coli (ATCC #25922) [1]; antibiotic 8 ug/mL): 6469
- susceptibility of E. coli by fluorescence counts (E. coli (ATCC #25922) [2]; [8]): resistant
- Relative Fluorescence at 4 hrs. (E. coli (ATCC #25922) [2]; antibiotic 0.5 ug/mL): 1155
- Relative Fluorescence at 4 hrs. (E. coli (ATCC #25922) [2]; antibiotic 1 ug/mL): 1539
- Relative Fluorescence at 4 hrs. (E. coli (ATCC #25922) [2]; antibiotic 2 ug/mL): 1183
- Relative Fluorescence at 4 hrs. (E. coli (ATCC #25922) [2]; antibiotic 4 ug/mL): 1170
- Relative Fluorescence at 4 hrs. (E. coli (ATCC #25922) [2]; antibiotic 8 ug/mL): 1194
- effect on oxygen consumption by fluorescence as percent of growth control (E. coli (ATCC #11775); closed system overlaid with mineral oil): did not show an effect on oxygen consumption
- susceptibility of organism by fluorescence as percent of growth control (E. coli (ATCC #11775); wells with no mineral oil (open to air)): sensitive
- susceptibility of E. coli by fluorescence counts (E. coli (ATCC #25922) [7]; [8]): resistant
- Relative Fluorescence at 4 hrs. (E. coli (ATCC #25922) [7]; antibiotic 0.5 ug/mL): 183
- Relative Fluorescence at 4 hrs. (E. coli (ATCC #25922) [7]; antibiotic 1 ug/mL): 197
- Relative Fluorescence at 4 hrs. (E. coli (ATCC #25922) [7]; antibiotic 2 ug/mL): 195
- Relative Fluorescence at 4 hrs. (E. coli (ATCC #25922) [7]; antibiotic 4 ug/mL): 160
- Relative Fluorescence at 4 hrs. (E. coli (ATCC #25922) [7]; antibiotic 8 ug/mL): 161
